From patent publication US10844032B2, “Substituted benzofuran, benzothiophene and indole Mcl-1 inhibitors” (Vanderbilt University, priority 2012, dated 2020)
Read-outs that look alike come from different tables or passages of the source.

Legend:
MDA-MB-231 [1] = assay: Cellular proliferation, CellTiter-Glo, MDA-MB-231; type: cell-based; conditions: Homo sapiens; MDA-MB-231, 10% FBS, 72 hours
Experimental: (§1) To evaluate compound effect on cellular proliferation, cells were plated at 1,000 cells/well in 96-well tissue culture plates in a total volume of 90 uL medium supplemented with 10% FBS (Sigma, Saint Louis, Mo.). 24 hours later, 10 uL of compound (in a 2-fold serial dilution) is added to the cells for a top concentration of 50 uM and a final DMSO concentration <1%. After 72 hours, cell number was measured using the CellTiter-Glo Luminescent assay according to manufacturer's recommendations (Promega, Madison, Wis.). A viability assay in reduced serum was also conducted. Cells were plated at 5,000 cells/well in 96-well plates in a total volume of 100 uL medium supplemented with 10% FBS (Sigma, Saint Louis, Mo.). 24 hours later, the medium was replaced with 90 uL medium containing 1% FBS and the assay conducted as described. IC50 values were determined by plotting growth against compound concentration in a 4-parameter logisitic model in XLFit.

MDA-MB-231 [2] = assay: Cellular viability in reduced serum, CellTiter-Glo, MDA-MB-231; type: cell-based; conditions: Homo sapiens; MDA-MB-231, reduced serum (1% FBS)
Experimental: as §1

K562 [3] = assay: Cellular proliferation, CellTiter-Glo, K562; type: cell-based; conditions: Homo sapiens; K562, 10% FBS, 72 hours
Experimental: as §1

NCI-929 [4] = assay: Cellular viability in reduced serum, CellTiter-Glo, NCI-929; type: cell-based; conditions: Homo sapiens; NCI-929, reduced serum (1% FBS)
Experimental: as §1

K562 [5] = assay: Cellular viability in reduced serum, CellTiter-Glo, K562; type: cell-based; conditions: Homo sapiens; K562, reduced serum (1% FBS)
Experimental: as §1

MDA-MB-468 [6] = assay: Cellular viability in reduced serum, CellTiter-Glo, MDA-MB-468; type: cell-based; conditions: Homo sapiens, MDA-MB-468, read-out: IC50 on cellular viability, MDA-MB-468
Experimental: as §1

NCI-929 [7] = assay: Cellular proliferation, CellTiter-Glo, NCI-929; type: cell-based; conditions: Homo sapiens; NCI-929, 10% FBS, 72 hours
Experimental: as §1

MDA-MB-468 [8] = assay: Cellular proliferation, CellTiter-Glo, MDA-MB-468; type: cell-based; conditions: Homo sapiens, MDA-MB-468, 72 h, read-out: IC50 on cellular proliferation, MDA-MB-468
Experimental: as §1

[9] = molecular target: recombinant Mcl-1 (residues 172-327) (Homo sapiens (Human), UniProt Q07820); assay: Bak peptide fluorescence polarization anisotropy competition assay, Mcl-1; type: binding; conditions: read-out: Ki for inhibition of Mcl-1
[10] = molecular target: Bcl-2 (residues 1-207 A96T,G110R, Δ35-91, replaced with Bcl-xL35-50) (Homo sapiens, UniProt P10415, A37E/DEL42-87/G36T/INS34DVEEN/P40E/P88T/P90S/P91E/V35R/V89E); assay: Bak peptide fluorescence polarization anisotropy competition assay, Bcl-2 selectivity; type: binding; conditions: Table 3; FITC-Bak peptide 10 nM, Bcl-2 40 nM
Experimental: Compound affinity was measured using a fluorescence polarization anisotropy competition assay. Anisotropy measurements were carried out in 384-well, black, flat-bottom plates (Greiner Bio-one, Monroe, N.C., USA).
Compounds are diluted in DMSO in a 10-point, 3-fold serial dilution scheme. 2.5 uL compound is added to 47.5 uL of assay buffer containing FITC-Bak and protein, for a final DMSO concentration of 5% and a top concentration of 20 uM. […] The plate was mixed and incubated for 90 minutes at room temperature.

[11] = Table 2, Ki range, FITC-Bak peptide 10 nM, Mcl-1 14 nM

recombinant Mcl-1 (residues 172-327), sequence (Q07820 172-327): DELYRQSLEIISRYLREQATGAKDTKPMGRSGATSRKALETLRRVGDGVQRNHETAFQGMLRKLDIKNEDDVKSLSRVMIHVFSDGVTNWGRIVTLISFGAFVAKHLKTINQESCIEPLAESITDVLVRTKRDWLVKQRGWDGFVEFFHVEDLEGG
Bcl-2 (residues 1-207 A96T,G110R, Δ35-91, replaced with Bcl-xL35-50), sequence (P10415 with tags, fused parts or gaps A37E/DEL42-87/G36T/INS34DVEEN/P40E/P88T/P90S/P91E/V35R/V89E): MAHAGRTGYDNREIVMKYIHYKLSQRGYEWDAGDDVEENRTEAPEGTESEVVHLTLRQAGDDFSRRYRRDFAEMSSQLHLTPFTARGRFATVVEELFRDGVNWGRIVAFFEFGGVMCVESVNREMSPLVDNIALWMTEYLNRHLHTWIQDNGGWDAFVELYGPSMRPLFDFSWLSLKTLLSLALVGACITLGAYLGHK

Cc1cc(OCCCc2c(C(=O)NS(=O)(=O)CCNC(=O)c3cccn3Cc3ccccc3)[nH]c3c(-c4c(CO)nn(C)c4C)cccc23)cc(C)c1Cl [Example 207, N-((2-(1-benzyl-1H-pyrrole-2-carboxamido)ethyl)sulfonyl)-3-(3-(4-chloro-3,5-dimethylphenoxy)propyl)-7-(3-(hydroxymethyl)-1,5-dimethyl-1H-pyrazol-4-yl)-1H-indole-2-carboxamide]
IC50 (MDA-MB-231 [1]): > 50 µM | IC50 (MDA-MB-231 [2]): 14.2 µM | IC50 (K562 [3]): > 50 µM | IC50 (NCI-929 [4]): 12 µM | IC50 (K562 [5]): 10.1 µM | IC50 (MDA-MB-468 [6]): 14.8 µM | IC50 (NCI-929 [7]): 30 µM | IC50 (MDA-MB-468 [8]): 45.7 µM | Ki [9, 11]: ≤ 0.1 µM

Cc1cc(OCCCc2c(C(=O)NS(=O)(=O)CCNC(=O)c3cccn3C)[nH]c3c(-c4c(CO)nn(C)c4C)cccc23)cc(C)c1Cl [Example 206, 3-(3-(4-chloro-3,5-dimethylphenoxy)propyl)-7-(3-(hydroxymethyl)-1,5-dimethyl-1H-1-pyrazol-4-yl)-N-((2-(1-methyl-1H-pyrrole-2-carboxamido)ethyl)sulfonyl)-1H-indole-2-carboxamide]
IC50 (MDA-MB-231 [1]): > 50 µM | IC50 (MDA-MB-231 [2]): 18.4 µM | IC50 (K562 [3]): > 50 µM | IC50 (NCI-929 [4]): 33.9 µM | IC50 (K562 [5]): 10.7 µM | IC50 (MDA-MB-468 [6]): 26.8 µM | IC50 (NCI-929 [7]): > 50 µM | IC50 (MDA-MB-468 [8]): 50 µM | Ki [9, 11]: ≤ 0.1 µM

O=C(O)c1sc2cc(Cl)ccc2c1CCCOc1cccc2ccccc12 [Example 5, 6-chloro-3-(3-(naphthalen-1-yloxy)propyl)benzo[b]thiophene-2-carboxylic acid]
Ki [10]: 1.1 µM

Cc1cc(OCCCc2c(C(=O)NS(=O)(=O)c3ccccc3)[nH]c3c(-c4cccnc4C)cccc23)cc(C)c1Cl [Example 97, 3-(3-(4-chloro-3,5-dimethylphenoxy)propyl)-7-(2-methylpyridin-3-yl)-N-(phenylsulfonyl)-1H-indole-2-carboxamide]
IC50 (MDA-MB-231 [1]): 16.9 µM | IC50 (MDA-MB-231 [2]): 12.9 µM | IC50 (K562 [3]): 17.9 µM | IC50 (NCI-929 [4]): 5.1 µM | IC50 (K562 [5]): 2.6 µM | IC50 (MDA-MB-468 [6]): 11.2 µM | IC50 (NCI-929 [7]): 23.3 µM | IC50 (MDA-MB-468 [8]): 13.8 µM

O=C(O)c1oc2ccccc2c1CCCOc1cccc2ccccc12 [Example 21, 3-(3-(naphthalen-1-yloxy)propyl)benzofuran-2-carboxylic acid]
Ki [10]: 4.6 µM

Cc1cc(OCCCc2c(C(=O)NS(=O)(=O)CCNC(=O)c3cccn3Cc3ccccc3)n(Cc3cccnc3)c3cc(Cl)ccc23)cc(C)c1Cl [Example 277, N-((2-(1-benzyl-1H-pyrrole-2-carboxamido)ethyl)sulfonyl)-6-chloro-3-(3-(4-chloro-3,5-dimethylphenoxy)propyl)-1-(pyridin-3-ylmethyl)-1H-indole-2-carboxamide]
Ki [9]: 0.301 to 0.5 µM

Cc1cc(OCCCc2c(C(=O)NS(=O)(=O)c3ccccc3)[nH]c3c(-c4c(CO)nn(C)c4C)cccc23)cc(C)c1Cl [Example 127, 3-(3-(4-chloro-3,5-dimethylphenoxy)propyl)-7-(3-(hydroxymethyl)-1,5-dimethyl-1H-pyrazol-4-yl)-N-(phenylsulfonyl)-1H-indole-2-carboxamide]
Ki [9, 11]: ≤ 0.1 µM

Cc1cc(OCCCc2c(C(=O)NS(C)(=O)=O)n(C)c3cc(Cl)ccc23)cc(C)c1Cl [Example 268, 6-chloro-3-(3-(4-chloro-3,5-dimethylphenoxy)propyl)-1-methyl-N-(methylsulfonyl)-1H-indole-2-carboxamide]
Ki [9]: 0.501 to 0.999 µM

Cc1cc(OCCCc2c(C(=O)NS(=O)(=O)c3ccc(-c4ccccc4)cc3)[nH]c3ccccc23)cc(C)c1Cl [Example 139, N-([1,1′-biphenyl]-4-ylsulfonyl)-3-(3-(4-chloro-3,5-dimethylphenoxy)propyl)-1H-indole-2-carboxamide]
Ki [9]: 0.301 to 0.5 µM

Cc1cc(OCCCc2c(C(=O)NS(=O)(=O)CCNC(=O)c3cccc(-c4ccccc4)c3)[nH]c3ccccc23)cc(C)c1Cl [Example 165, N-((2-([1,1′-biphenyl]-3-ylcarboxamido)ethyl)sulfonyl)-3-(3-(4-chloro-3,5-dimethylphenoxy)propyl)-1H-indole-2-carboxamide]
Ki [9]: 0.301 to 0.5 µM

CC(=O)N1CCC(CS(=O)(=O)NC(=O)c2[nH]c3ccccc3c2CCCOc2cc(C)c(Cl)c(C)c2)CC1 [Example 210, N-(((1-acetylpiperidin-4-yl)methyl)sulfonyl)-3-(3-(4-chloro-3,5-dimethylphenoxy)propyl)-1H-indole-2-carboxamide]
Ki [9]: 0.501 to 0.999 µM

CS(=O)(=O)NC(=O)c1[nH]c2ccccc2c1CCCOc1ccc(C(F)(F)F)cc1 [Example 34, N-(methylsulfonyl)-3-(3-(4-(trifluoromethyl)phenoxy)propyl)-1H-indole-2-carboxamide]
Ki [9]: 10 to 50 µM

Cc1cc(OCCCc2c(C(=O)NS(=O)(=O)CCCNC(=O)c3cccn3Cc3ccccc3)[nH]c3cc(Cl)ccc23)cc(C)c1Cl [Example 258, N-((3-(1-benzyl-1H-pyrrole-2-carboxamido)propyl)sulfonyl)-6-chloro-3-(3-(4-chloro-3,5-dimethylphenoxy)propyl)-1H-indole-2-carboxamide]
Ki [9]: 0.101 to 0.299 µM

Cc1cc(OCCCc2c(C(=O)NS(=O)(=O)CCNC(=O)c3cc(C)n(Cc4ccccc4)c3C)[nH]c3ccccc23)cc(C)c1Cl [Example 194, N-((2-(1-benzyl-2,5-dimethyl-1H-pyrrole-3-carboxamido)ethyl)sulfonyl)-3-(3-(4-chloro-3,5-dimethylphenoxy)propyl)-1H-indole-2-carboxamide]
Ki [9]: 0.101 to 0.299 µM

Cc1cc(OCCCc2c(C(=O)NS(=O)(=O)CCNC(=O)NC3CCCCC3)[nH]c3ccccc23)cc(C)c1Cl [Example 199, 3-(3-(4-chloro-3,5-dimethylphenoxy)propyl)-N-((2-(3-cyclohexylureido)ethyl)sulfonyl)-1H-indole-2-carboxamide]
Ki [9]: 0.301 to 0.5 µM

Cc1cc(OCCCc2c(C(=O)NS(=O)(=O)c3ccccc3)[nH]c3c(-c4ccsc4)cccc23)cc(C)c1Cl [Example 96, 3-(3-(4-chloro-3,5-dimethylphenoxy)propyl)-N-(phenylsulfonyl)-7-(thiophen-3-yl)-1H-indole-2-carboxamide]
Ki [9]: 0.101 to 0.299 µM

Cc1ccc(OCCCc2c(C(=O)NS(C)(=O)=O)[nH]c3ccccc23)cc1 [Example 33, N-(methylsulfonyl)-3-(3-(p-tolyloxy)propyl)-1H-indole-2-carboxamide]
Ki [9]: 10 to 50 µM

Cc1cc(OCCCc2c(C(=O)NS(=O)(=O)CCNC(=O)c3ccco3)[nH]c3cc(Cl)ccc23)cc(C)c1Cl [Example 232, 6-chloro-3-(3-(4-chloro-3,5-dimethylphenoxy)propyl)-N-((2-(furan-2-carboxamido)ethyl)sulfonyl)-1H-indole-2-carboxamide]
Ki [9, 11]: ≤ 0.1 µM

Cc1cc(OCCCc2c(C(=O)NS(=O)(=O)c3ccc(OCc4ccccc4)cc3)[nH]c3ccccc23)cc(C)c1Cl [Example 136, N-((4-(benzyloxy)phenyl)sulfonyl)-3-(3-(4-chloro-3,5-dimethylphenoxy)propyl)-1H-indole-2-carboxamide]
Ki [9]: 0.101 to 0.299 µM

Cc1cc2nnnn2cc1-c1cccc2c(CCCOc3cc(C)c(Cl)c(C)c3)c(C(=O)NS(=O)(=O)c3ccccc3)[nH]c12 [Example 300, 3-(3-(4-chloro-3,5-dimethylphenoxy)propyl)-7-(7-methyltetrazolo[1,5-a]pyridin-6-yl)-N-(phenylsulfonyl)-1H-indole-2-carboxamide]
Ki [9, 11]: ≤ 0.1 µM

Cc1cc(OCCCc2c(C(=O)NS(=O)(=O)CCNC(=O)c3ccc4cc[nH]c4c3)[nH]c3ccccc23)cc(C)c1Cl [Example 176, N-((2-(1H-indole-6-carboxamido)ethyl)sulfonyl)-3-(3-(4-chloro-3,5-dimethylphenoxy)propyl)-1H-indole-2-carboxamide]
Ki [9]: 0.101 to 0.299 µM

Cc1cc(OCCCc2c(C(=O)NS(=O)(=O)c3ccc(OCc4ccccc4)cc3)[nH]c3cc(Cl)ccc23)cc(C)c1Cl [Example 224, N-((4-(benzyloxy)phenyl)sulfonyl)-6-chloro-3-(3-(4-chloro-3,5-dimethylphenoxy)propyl)-1H-indole-2-carboxamide]
Ki [9]: 0.301 to 0.5 µM
